Activity calls are given as the source filed them. Rule as the data show it, for most assays here: actives have a measured EC50 and inactives only a lower limit.
How the values were obtained:
[1] = NIH-3T3 fibroblast cytotoxicity, dose response, cytotoxicity control, cell-based, fluorescence, Alamar Blue, secondary assay (AID 2327); type: functional;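 also: NIH-3T3 mouse fibroblasts cultured with fluconazole at 8 µg/mL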
[2] = fluconazole-exposed Candida albicans growth modulators – fluorescence, retest, confirmation (AID 2467); type: functional, cell-based
INS1 = experiment: INS-1E survival protection against cytokine death – cell-based, luminescence, retest, dose response (AID 449756); type: functional; conditions: Rattus norvegicus;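 also: cell death triggered by IL-1 beta plus TNF-alpha plus IFN-gamma mixture; protective hits raise ATP signal compared with cytokine alone wells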
[3] = target: Luciferin 4-monooxygenase (Photinus pyralis, UniProt P08659); experiment: inhibition of purified Photinus pyralis luciferase – biochemical, luminescence, dose response (AID 1891)
Luciferin 4-monooxygenase, sequence (P08659 whole entry): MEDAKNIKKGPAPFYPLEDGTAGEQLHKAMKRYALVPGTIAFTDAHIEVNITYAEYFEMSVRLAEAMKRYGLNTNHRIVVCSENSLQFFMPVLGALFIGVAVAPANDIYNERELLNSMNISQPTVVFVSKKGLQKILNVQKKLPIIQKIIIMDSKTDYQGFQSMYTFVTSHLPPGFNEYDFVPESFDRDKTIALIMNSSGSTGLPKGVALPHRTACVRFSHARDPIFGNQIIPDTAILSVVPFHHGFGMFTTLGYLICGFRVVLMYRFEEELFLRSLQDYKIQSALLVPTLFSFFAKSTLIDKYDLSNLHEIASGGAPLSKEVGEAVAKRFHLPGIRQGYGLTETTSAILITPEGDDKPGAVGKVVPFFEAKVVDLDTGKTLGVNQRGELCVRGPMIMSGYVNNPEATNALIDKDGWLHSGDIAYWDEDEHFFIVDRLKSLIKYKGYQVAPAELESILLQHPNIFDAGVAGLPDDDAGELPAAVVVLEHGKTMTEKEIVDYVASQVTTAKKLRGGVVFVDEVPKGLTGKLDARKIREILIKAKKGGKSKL

[4] = Luminescence Cell-Based Dose Confirmation HTS to Identify Inhibitors of Platelet Dense Granule Release. [Related pubchem assays: 1663 (Primary HTS), 1678 (Summary of Project)]; type: functional
[5] = tested on: Streptococcus sp. 'group A'; experiment: Streptococcus pyogenes SK(-)GAS viability under kanamycin – luminescence, BacTiterGlo, confirmation, counter-screen for streptokinase expression inhibitor project, dose response (AID 1900); type: functional, organism-based
Streptococcus = experiment: GAS UMAA2166 growth inhibition – luminescence, BacTiterGlo, counter-screen for streptokinase expression inhibitor project, dose response (AID 1915); type: functional, organism-based;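 also: potency for reduction of bacterial viability or growth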
[6] = target: T1, Calpain-2 catalytic subunit (Sus scrofa, UniProt P43367); experiment: m-calpain protease blockers, concentration series – biochemical, fluorogenic peptide substrate, dose response (AID 1420); type: functional
T1 sequence (P43367 whole entry): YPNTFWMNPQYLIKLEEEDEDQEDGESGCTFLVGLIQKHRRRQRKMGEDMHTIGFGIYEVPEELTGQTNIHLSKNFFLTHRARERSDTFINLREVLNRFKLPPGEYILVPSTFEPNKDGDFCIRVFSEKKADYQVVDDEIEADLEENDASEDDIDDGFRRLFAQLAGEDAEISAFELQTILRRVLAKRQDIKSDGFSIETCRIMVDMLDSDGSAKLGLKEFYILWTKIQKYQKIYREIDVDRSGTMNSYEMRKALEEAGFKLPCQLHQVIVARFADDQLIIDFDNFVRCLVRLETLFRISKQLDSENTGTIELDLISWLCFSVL

BJ [7] = experiment: BJ-TERT fibroblast viability loss – cell-based, RAS-independent, luminescence, dose response (AID 1933); type: functional; conditions: Homo sapiens
BJ [8] = experiment: cells; type: functional, cell-based; conditions: Homo sapiens
BJ [9] = experiment: BJ-TERT-LT-ST fibroblast viability loss – cell-based, RAS-independent, luminescence, dose response (AID 1935); type: functional; conditions: Homo sapiens;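 also: BJ fibroblasts immortalized with TERT plus LT and ST oncogenes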
[10] = DRD fibroblast viability loss – cell-based, non-viral oncogenic, luminescence, dose response (AID 1934); type: functional; conditions: Homo sapiens
[11] = target: T2, Replicative DNA helicase DnaB (Mycobacterium tuberculosis, UniProt P9WMR3); experiment: DnaB intein splicing inhibitors, dose response, biochemical, cell-free fluorescence (AID 449749); type: functional
T2 sequence (P9WMR3 whole entry): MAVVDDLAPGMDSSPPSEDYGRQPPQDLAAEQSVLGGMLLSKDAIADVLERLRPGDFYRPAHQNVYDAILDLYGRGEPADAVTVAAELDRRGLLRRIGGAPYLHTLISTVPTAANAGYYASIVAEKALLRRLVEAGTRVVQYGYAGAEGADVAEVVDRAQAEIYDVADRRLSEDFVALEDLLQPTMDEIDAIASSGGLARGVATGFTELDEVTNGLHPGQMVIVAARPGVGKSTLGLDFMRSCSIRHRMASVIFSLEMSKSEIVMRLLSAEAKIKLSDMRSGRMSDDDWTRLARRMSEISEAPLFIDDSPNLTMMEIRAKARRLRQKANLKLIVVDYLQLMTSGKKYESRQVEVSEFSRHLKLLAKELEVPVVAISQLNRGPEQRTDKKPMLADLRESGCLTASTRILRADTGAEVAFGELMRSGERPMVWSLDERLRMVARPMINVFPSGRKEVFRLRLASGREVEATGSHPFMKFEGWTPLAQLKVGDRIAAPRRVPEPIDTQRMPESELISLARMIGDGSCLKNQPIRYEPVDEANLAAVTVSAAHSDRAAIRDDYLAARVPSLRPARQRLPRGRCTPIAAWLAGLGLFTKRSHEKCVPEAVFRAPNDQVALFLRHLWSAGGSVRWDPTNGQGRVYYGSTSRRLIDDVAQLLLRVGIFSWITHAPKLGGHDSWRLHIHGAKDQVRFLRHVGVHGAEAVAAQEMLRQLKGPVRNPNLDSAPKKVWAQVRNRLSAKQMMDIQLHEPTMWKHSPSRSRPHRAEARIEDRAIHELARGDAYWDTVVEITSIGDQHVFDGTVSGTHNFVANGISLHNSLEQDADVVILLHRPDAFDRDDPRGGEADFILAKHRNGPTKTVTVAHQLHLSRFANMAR

Protein RecA = target: T3, Protein RecA (Mycobacterium tuberculosis, UniProt P9WHJ3); experiment: Fluorescence Cell-Free Homogeneous Dose Retest to Identify Inhibitors of RecA-Intein Splicing Activity. [Related pubchem assays (depositor defined):AID2097, AID2223, AID489010, AID492950]; type: functional
T3 sequence (P9WHJ3 whole entry): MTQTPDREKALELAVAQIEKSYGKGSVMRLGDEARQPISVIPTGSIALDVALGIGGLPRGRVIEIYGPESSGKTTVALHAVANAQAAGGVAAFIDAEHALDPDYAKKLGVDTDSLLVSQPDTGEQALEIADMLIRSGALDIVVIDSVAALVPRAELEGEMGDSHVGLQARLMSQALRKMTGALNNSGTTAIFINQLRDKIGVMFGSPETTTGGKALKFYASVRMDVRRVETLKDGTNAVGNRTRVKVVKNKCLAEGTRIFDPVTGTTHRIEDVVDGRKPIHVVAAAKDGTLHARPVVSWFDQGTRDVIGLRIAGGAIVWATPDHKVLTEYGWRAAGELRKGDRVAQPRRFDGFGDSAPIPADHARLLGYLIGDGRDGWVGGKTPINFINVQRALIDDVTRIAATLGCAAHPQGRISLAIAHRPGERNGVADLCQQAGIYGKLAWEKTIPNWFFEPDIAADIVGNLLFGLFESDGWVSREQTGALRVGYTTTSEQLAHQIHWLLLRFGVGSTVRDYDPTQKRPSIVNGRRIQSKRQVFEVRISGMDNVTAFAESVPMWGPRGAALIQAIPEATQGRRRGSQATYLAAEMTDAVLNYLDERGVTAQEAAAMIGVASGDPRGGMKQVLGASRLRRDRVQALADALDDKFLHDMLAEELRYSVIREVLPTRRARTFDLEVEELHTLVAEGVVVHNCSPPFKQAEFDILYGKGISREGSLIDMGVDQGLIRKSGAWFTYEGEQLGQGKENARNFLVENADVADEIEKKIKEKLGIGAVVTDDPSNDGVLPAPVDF

[12] = luciferase reporter signal suppression in cells – H4 neuroglioma cells, luminescence, dose response (AID 1990); type: functional, cell-based
[13] = Luminescence Cell-Based Dose Response HTS to Identify Inhibitors of 5'UTR Stem-Loop Driven Prion Protein mRNA Translation in H4 Neuroglioblastoma Cells. [Related pubchem assays: 1827 (Project Summary), 1813 (Primary HTS)]; type: functional
[14] = alpha-synuclein stem-loop luciferase translation blockers – H4 neuroglioma cells, luminescence, confirmation (AID 1988); type: functional, cell-based
Streptokinase A = target: T4, Streptokinase A (Streptococcus pyogenes serotype M1, UniProt P10520); experiment: viability-normalized secreted streptokinase activity reduction – plasminogen activation absorbance, OD405, dose response (AID 1914); type: functional, Streptococcus pyogenes M1 GAS;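 also: secreted streptokinase activity via plasminogen activation per viability signal from cell pellet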
T4 sequence (P10520 whole entry): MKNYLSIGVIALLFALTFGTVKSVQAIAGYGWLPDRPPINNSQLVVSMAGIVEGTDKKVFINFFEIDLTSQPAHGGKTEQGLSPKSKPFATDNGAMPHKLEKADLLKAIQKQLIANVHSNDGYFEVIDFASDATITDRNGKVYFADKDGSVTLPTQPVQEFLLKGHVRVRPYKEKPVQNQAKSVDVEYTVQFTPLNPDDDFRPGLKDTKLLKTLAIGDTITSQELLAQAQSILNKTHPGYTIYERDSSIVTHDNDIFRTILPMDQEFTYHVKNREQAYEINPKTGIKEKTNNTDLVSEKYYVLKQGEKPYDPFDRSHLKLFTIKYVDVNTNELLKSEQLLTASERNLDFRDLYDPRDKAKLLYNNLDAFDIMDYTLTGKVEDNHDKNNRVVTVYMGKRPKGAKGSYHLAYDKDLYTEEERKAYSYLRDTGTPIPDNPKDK

[15] = Luminescence Cell-Based Dose Response HTS to Identify Activators of Luciferase Translation or Activity in H4 […] Cells. [Related pubchem assays: 1829 (Project Summary), 1814 (Primary HTS)]; type: functional
H4 = experiment: Luminescence Cell-Based Dose Response HTS to Identify Activators of 5'UTR Stem-Loop Driven Prion Protein mRNA Translation in H4 Neuroglioblastoma Cells. [Related pubchem assays: 1829 (Project Summary), 1814 (Primary HTS)]; type: functional; conditions: Homo sapiens

With COc1cc(NC(=O)c2ccccc2NS(=O)(=O)c2ccc(Cl)s2)cc(OC)c1 the EC50 [1] was 14.5 µM (active), the EC50 [2] was 4.13 µM (active) and the AC50 (INS1) was 5.95 µM (active).

For Cc1c(OC(C)C(=O)NCc2ccccn2)ccc2c3c(c(=O)oc12)CCCC3 (stereo not drawn), the EC50 [3] was > 112 µM (not active) and the EC50 [4] was > 112 µM (not active).

In the case of O=C(c1cc(-c2ccccc2)[nH]n1)N1CCc2c([nH]c3ccccc23)C1c1ccccn1 (stereo not drawn), the EC50 [1] is reported as > 160 µM (inactive), the EC50 [5] is reported as 10.3 µM (active) and the EC50 [2] is reported as 0.718 µM (active). The EC50 (Streptococcus) was 20.4 µM (active).

For CC(=O)N(C)c1ccc(NC(=O)Nc2ccc(C)cc2)cc1, the IC50 [6] was 0.673 µM (not active).

With O=C(O)c1ccc(CN2C(=O)CSC2=S)cc1 the EC50 [1] was > 150 µM (inactive) and the EC50 [2] was 0.153 µM (active).

For O=C(O)c1ccc2c(=O)n3c(nc2c1)/C(=C/c1ccc(C(F)(F)F)cc1)CC3, the EC50 (BJ [7]) was > 150 µM (not active), the EC50 (BJ [8]) was > 150 µM (not active) and the EC50 (BJ [9]) was > 150 µM (inconclusive). For the same molecule, the EC50 [10] was > 150 µM (not active).

In the case of Cc1ccc(C(=O)NC(=O)OCCn2c(C)cnc2[N+](=O)[O-])cc1, the EC50 [1] is reported as > 160 µM (inconclusive) and the EC50 [2] is reported as > 38 µM (not active).

In the case of O=C1CCN(N=Nc2cccc(Cl)c2)N1, the EC50 [3] is reported as > 112 µM (not active), the EC50 [4] is reported as > 112 µM (not active) and the AC50 [11] is reported as 40.7 µM (active). The EC50 (Protein RecA) was 15.4 µM (active).

In the case of O=C1/C(=C\c2ccccc2)C2OCC=C3CN4CCC56c7ccccc7N1C5C2C3CC46 (stereo not drawn), the EC50 (BJ [7]) is reported as 19.4 µM (active), the EC50 (BJ [8]) is reported as > 150 µM (not active) and the EC50 (BJ [9]) is reported as > 75 µM (inconclusive). The EC50 [10] was 15.3 µM (active).

With OCCCNc1nc(-c2ccc(Cl)cc2)nnc1-c1ccc(Br)cc1 the IC50 [6] was 3.09 µM (not active).

With COC(=O)c1sccc1NC(=O)Nc1ccc(OC)c(OC)c1 the EC50 [3] was 2.36 µM (active) and the EC50 [4] was 9.25 µM (active).

With CC(C)OC(=O)c1cn(-c2ccccc2)nc1-c1ccc2c(c1)OCCO2 the IC50 [6] was 39.3 µM (not active).

For CCOC(=O)c1sc(N(Cc2ccccc2)C(=O)CCl)nc1C, the EC50 (BJ [7]) was 1.77 µM (active), the EC50 (BJ [8]) was 11.9 µM (active) and the EC50 (BJ [9]) was 8.8 µM (active). The EC50 [10] was 4.97 µM (inconclusive), the AC50 [11] was 2.6 µM (active) and the EC50 (Protein RecA) was 0.79 µM (active).

With COc1cccc(N/C=C/C(=O)c2ccc(OC)c(OC)c2)c1 the EC50 [3] was 14.2 µM (active) and the EC50 [4] was 22.8 µM (active).

For CCN(CC)CCCCNc1ncc2cc(-c3cc(OC)cc(OC)c3)c(NC(=O)NC(C)(C)C)nc2n1 [PD-173074], the EC50 [12] was > 120 µM (not active), the EC50 [13] was 12.8 µM (active) and the EC50 [14] was 9.24 µM (active).

For CCOC(=O)c1cc(-c2ccccc2)sc1NC(=O)C(C)OC(=O)c1cccnc1OCC (stereo not drawn), the EC50 [3] was > 112 µM (not active) and the EC50 [4] was > 112 µM (not active).

In the case of COc1ccc(NC(=S)N2CCN(CCN3C(=O)c4cccc5cccc(c45)C3=O)CC2)cc1, the IC50 [6] is reported as 24.2 µM (not active).

In the case of O=C(N/N=C/c1ccc(Cl)c([N+](=O)[O-])c1)C1CC1, the IC50 [6] is reported as 34.8 µM (not active).

With COC(=O)c1sc(NC(=O)c2ccoc2C)nc1C the EC50 [3] was 2.44 µM (active) and the EC50 [4] was 5.71 µM (active).

With O=[N+]([O-])/C=C/c1c(OCc2ccccc2)ccc2ccccc12 the EC50 [5] was 1.49 µM (active), the EC50 (BJ [7]) was 2.3 µM (inconclusive) and the EC50 (Streptokinase A) was 1.2 µM (active). For the same molecule, the EC50 (BJ [8]) was 90.6 µM (inconclusive), the EC50 (BJ [9]) was 3.63 µM (inconclusive) and the EC50 [10] was 3.7 µM (active). The EC50 (Streptococcus) was 4.18 µM (active).

With O=[N+]([O-])c1cccc(N/N=C/c2ccc(N3CCOCC3)cc2)c1 the EC50 [15] was 46.8 µM (active) and the EC50 (H4) was 13.1 µM (active).

For Cc1cc(Nc2cccc(Cl)c2Cl)n2ncnc2n1, the EC50 [1] was > 150 µM (inactive) and the EC50 [2] was 0.769 µM (active).

With O=c1c2ccccc2c(-c2ccc(O)cc2)nn1-c1cccc(C(F)(F)F)c1 the EC50 [12] was 16.6 µM (active), the EC50 [13] was > 120 µM (not active) and the EC50 [14] was > 120 µM (not active).

For CCCCNC(=O)c1ccc(N2CCC3(CC2)OCCO3)c([N+](=O)[O-])c1, the EC50 [3] was > 112 µM (not active) and the EC50 [4] was > 112 µM (not active).

— ChEMBL document CHEMBL1201862, “PubChem BioAssay data set” (2004)
